Reference: ChEMBL document CHEMBL5291721, “A preclinical secondary pharmacology resource illuminates target-adverse drug reaction associations of marketed drugs” (Nat Commun, 2023)

Key:
[1] = molecular target: T1, 5-hydroxytryptamine receptor 1A (Homo sapiens, UniProt P08908); format: functional, cell-based
T1 sequence (P08908 whole entry): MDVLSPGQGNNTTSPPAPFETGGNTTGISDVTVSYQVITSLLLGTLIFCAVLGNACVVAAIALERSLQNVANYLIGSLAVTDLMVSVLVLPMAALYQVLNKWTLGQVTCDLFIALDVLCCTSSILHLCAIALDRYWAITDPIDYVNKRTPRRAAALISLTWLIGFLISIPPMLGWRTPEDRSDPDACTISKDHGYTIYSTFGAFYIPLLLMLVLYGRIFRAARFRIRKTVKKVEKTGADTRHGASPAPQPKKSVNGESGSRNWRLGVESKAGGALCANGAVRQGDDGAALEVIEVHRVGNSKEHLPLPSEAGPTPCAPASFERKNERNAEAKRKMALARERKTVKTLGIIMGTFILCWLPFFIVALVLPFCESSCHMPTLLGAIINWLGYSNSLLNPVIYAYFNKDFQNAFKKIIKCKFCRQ

Adenosine receptor A2a = Adenosine receptor A2a (Homo sapiens, UniProt P29274)
Adenosine receptor A2a, sequence (P29274 whole entry): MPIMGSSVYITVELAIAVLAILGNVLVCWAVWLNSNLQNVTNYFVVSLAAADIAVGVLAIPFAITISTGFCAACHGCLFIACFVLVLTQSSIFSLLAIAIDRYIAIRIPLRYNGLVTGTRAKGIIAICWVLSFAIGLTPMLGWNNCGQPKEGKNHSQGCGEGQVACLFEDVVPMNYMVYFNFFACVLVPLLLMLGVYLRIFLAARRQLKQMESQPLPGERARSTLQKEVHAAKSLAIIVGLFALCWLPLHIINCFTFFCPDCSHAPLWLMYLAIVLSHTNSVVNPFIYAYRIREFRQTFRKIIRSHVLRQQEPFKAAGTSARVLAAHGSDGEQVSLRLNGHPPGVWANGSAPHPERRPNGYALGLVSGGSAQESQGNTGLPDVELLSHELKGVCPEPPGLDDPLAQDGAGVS

[2] = molecular target: Voltage-gated inwardly rectifying potassium channel KCNH2 (Homo sapiens, UniProt Q12809); format: functional; details: read-out: AC50
Adenosine receptor A3 = molecular target: T2, Adenosine receptor A3 (Homo sapiens, UniProt P0DMS8)
T2 sequence (P0DMS8 whole entry): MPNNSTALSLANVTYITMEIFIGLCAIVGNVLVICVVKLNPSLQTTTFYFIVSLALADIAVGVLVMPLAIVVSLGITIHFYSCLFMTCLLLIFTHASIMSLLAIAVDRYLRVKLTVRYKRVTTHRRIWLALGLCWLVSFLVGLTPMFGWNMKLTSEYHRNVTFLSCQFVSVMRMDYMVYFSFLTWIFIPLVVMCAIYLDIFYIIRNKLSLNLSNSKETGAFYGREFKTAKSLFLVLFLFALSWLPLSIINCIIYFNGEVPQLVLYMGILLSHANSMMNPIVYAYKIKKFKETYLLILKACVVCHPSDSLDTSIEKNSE

[3] = molecular target: T3, Alpha-2A adrenergic receptor (Homo sapiens, UniProt P08913); format: functional, cell-based
T3 sequence (P08913 whole entry): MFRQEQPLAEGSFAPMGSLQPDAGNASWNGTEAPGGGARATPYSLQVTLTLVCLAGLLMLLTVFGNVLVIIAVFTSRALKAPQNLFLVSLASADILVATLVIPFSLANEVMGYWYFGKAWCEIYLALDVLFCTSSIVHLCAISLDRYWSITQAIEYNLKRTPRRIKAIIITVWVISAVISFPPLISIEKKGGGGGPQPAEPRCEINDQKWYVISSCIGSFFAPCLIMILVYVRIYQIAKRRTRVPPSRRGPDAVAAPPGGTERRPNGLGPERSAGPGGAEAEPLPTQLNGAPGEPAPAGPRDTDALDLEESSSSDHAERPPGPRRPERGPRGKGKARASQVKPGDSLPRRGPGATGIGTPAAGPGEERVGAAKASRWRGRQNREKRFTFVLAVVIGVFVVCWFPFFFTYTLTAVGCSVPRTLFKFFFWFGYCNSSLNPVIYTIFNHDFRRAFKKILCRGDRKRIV

Melanocortin receptor 3 = Melanocortin receptor 3 (Homo sapiens, UniProt P41968)
Melanocortin receptor 3, sequence (P41968 whole entry): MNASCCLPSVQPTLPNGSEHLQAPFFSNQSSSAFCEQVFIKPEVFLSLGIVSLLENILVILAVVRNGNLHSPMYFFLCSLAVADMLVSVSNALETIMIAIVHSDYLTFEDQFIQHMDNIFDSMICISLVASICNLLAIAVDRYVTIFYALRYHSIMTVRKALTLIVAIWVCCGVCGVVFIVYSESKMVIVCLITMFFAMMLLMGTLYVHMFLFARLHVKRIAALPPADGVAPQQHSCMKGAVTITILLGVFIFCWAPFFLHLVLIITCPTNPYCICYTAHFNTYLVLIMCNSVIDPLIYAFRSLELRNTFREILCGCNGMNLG

[4] = molecular target: 3',5'-cyclic-AMP phosphodiesterase 4D (Homo sapiens, UniProt Q08499); format: functional
3',5'-cyclic-AMP phosphodiesterase 4D, sequence (Q08499 whole entry): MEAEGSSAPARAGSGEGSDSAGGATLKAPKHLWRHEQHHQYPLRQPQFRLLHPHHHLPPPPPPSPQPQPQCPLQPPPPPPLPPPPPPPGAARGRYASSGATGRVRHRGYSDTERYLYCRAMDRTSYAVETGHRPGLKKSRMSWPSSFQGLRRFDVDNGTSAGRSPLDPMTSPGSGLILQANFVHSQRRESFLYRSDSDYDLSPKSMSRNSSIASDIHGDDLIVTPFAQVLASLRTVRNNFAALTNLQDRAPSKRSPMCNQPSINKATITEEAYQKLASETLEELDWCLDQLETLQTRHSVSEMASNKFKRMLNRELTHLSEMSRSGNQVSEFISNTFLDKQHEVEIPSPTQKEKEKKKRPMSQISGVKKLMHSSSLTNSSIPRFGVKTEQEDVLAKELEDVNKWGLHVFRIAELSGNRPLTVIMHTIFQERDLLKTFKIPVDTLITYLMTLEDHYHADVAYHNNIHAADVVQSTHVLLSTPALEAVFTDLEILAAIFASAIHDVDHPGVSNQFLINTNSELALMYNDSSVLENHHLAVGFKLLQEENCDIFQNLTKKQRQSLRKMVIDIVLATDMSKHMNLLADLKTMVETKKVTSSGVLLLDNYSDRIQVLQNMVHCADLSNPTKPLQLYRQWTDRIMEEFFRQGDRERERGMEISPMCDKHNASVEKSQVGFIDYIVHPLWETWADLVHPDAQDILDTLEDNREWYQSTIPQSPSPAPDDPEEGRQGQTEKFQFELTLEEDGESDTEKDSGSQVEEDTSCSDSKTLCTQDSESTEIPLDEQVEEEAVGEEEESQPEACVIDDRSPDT

[5] = molecular target: Growth hormone secretagogue receptor type 1 (Homo sapiens, UniProt Q92847)
Growth hormone secretagogue receptor type 1, sequence (Q92847 whole entry): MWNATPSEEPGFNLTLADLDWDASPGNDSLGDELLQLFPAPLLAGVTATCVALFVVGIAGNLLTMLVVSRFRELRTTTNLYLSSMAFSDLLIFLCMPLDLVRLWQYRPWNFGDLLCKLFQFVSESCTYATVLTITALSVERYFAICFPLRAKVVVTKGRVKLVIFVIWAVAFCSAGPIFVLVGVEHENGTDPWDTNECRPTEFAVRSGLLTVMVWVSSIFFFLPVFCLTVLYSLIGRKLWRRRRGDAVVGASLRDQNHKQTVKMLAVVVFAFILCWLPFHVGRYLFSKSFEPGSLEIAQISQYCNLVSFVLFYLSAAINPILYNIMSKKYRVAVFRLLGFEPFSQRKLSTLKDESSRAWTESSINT

Adenosine receptor A1 = molecular target: T4, Adenosine receptor A1 (Homo sapiens, UniProt P30542)
T4 sequence (P30542 whole entry): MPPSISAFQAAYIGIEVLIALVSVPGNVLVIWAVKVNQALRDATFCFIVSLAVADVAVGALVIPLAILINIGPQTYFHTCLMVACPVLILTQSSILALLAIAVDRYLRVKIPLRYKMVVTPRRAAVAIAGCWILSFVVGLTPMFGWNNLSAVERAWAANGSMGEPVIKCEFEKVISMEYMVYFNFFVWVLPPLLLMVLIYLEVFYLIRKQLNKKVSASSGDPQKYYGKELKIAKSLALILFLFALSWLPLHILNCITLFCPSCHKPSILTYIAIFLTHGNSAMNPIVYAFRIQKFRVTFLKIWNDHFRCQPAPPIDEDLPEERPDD

D(1A) dopamine receptor = D(1A) dopamine receptor (Homo sapiens, UniProt P21728); format: functional, cell-based
D(1A) dopamine receptor, sequence (P21728 whole entry): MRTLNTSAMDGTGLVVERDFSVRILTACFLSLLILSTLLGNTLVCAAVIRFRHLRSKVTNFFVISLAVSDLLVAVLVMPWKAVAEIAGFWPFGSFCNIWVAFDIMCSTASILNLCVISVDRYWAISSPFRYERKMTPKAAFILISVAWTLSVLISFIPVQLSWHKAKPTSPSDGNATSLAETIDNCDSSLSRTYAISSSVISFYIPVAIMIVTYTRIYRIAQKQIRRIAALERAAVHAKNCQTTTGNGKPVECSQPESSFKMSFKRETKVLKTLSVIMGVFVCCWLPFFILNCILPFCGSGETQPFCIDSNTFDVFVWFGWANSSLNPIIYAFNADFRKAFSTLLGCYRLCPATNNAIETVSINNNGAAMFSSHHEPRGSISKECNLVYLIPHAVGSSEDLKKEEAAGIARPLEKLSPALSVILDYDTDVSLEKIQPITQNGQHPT

Bile salt export pump = Bile salt export pump (Homo sapiens, UniProt O95342); format: functional
Bile salt export pump, sequence (O95342 whole entry): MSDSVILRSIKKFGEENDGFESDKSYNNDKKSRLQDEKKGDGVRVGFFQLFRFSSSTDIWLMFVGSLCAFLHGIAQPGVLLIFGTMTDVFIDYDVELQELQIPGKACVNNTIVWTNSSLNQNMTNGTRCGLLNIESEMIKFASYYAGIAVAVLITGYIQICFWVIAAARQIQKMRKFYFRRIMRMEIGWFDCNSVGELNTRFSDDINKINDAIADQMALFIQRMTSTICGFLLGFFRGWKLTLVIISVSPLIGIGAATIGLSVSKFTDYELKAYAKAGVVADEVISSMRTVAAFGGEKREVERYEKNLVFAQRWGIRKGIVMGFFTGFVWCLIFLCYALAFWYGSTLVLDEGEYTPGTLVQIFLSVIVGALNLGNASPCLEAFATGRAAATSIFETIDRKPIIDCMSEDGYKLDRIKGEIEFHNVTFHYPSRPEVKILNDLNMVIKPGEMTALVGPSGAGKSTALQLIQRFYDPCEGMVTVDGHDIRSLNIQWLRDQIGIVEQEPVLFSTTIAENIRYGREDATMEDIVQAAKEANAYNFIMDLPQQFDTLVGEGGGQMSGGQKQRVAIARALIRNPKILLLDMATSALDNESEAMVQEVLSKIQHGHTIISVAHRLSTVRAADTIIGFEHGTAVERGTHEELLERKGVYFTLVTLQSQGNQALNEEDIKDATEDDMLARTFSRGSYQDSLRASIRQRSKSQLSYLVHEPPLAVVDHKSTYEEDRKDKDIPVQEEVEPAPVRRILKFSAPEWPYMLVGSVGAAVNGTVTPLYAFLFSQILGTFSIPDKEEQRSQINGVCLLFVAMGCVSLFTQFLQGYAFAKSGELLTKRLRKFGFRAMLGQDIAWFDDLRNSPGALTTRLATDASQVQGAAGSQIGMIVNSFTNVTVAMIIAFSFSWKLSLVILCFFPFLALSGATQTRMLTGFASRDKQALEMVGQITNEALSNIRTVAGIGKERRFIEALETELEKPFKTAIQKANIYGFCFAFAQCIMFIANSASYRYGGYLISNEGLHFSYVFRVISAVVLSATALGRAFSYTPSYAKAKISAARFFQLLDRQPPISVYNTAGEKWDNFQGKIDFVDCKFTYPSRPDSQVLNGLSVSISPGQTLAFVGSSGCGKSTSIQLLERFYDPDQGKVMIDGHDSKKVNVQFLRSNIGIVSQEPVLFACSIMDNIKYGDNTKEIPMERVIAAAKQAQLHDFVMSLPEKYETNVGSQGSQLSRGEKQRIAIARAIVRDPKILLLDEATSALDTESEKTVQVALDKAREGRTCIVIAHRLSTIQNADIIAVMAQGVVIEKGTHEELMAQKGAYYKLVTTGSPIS

[6] = molecular target: 5-hydroxytryptamine receptor 2B (Homo sapiens, UniProt P41595); format: functional, cell-based
5-hydroxytryptamine receptor 2B, sequence (P41595 whole entry): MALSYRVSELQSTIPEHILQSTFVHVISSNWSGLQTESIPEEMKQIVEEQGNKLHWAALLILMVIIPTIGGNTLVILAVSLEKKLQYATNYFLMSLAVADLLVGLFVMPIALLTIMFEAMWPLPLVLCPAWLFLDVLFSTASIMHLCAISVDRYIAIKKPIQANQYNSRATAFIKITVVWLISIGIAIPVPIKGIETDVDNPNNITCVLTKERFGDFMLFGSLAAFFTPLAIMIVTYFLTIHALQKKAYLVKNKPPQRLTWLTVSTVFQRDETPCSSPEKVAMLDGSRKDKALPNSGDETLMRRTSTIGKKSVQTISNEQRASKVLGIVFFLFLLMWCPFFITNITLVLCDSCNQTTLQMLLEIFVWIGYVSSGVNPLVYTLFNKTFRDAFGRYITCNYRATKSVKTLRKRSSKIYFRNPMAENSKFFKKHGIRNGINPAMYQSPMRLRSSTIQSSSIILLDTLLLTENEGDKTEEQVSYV

[7] = molecular target: T5, Type-1 angiotensin II receptor (Homo sapiens, UniProt P30556)
T5 sequence (P30556 whole entry): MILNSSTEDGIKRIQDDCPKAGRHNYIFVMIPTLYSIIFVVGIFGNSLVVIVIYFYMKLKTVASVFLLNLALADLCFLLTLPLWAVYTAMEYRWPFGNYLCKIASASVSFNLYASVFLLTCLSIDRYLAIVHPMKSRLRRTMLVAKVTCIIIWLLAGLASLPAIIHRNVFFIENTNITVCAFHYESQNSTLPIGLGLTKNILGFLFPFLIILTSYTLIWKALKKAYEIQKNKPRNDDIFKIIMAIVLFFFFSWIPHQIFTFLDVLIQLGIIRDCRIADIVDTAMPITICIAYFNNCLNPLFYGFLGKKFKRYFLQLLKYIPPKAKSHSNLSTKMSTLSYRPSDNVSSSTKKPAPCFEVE

[8] = molecular target: T6, 5-hydroxytryptamine receptor 3A (Homo sapiens, UniProt P46098); format: functional
T6 sequence (P46098 whole entry): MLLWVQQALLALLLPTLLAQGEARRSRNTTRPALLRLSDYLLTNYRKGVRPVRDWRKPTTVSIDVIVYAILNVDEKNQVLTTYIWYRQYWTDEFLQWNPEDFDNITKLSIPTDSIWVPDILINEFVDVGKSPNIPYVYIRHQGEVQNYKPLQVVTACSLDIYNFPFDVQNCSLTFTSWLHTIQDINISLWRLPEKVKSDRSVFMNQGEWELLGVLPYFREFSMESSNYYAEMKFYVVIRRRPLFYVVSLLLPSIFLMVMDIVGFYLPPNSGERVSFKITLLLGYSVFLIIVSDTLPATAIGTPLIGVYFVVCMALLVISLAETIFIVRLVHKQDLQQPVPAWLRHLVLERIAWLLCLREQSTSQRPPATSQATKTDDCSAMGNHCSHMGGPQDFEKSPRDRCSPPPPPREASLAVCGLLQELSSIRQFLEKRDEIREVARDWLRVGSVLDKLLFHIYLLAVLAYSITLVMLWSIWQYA
Also: assay procedure not described here.

AC50 [1] | AC50 (Adenosine receptor A2a) | AC50 (Adenosine receptor A3) | AC50 [3] | AC50 (Melanocortin receptor 3) | AC50 [4] | AC50 [5] | AC50 (Adenosine receptor A1) | AC50 (D(1A) dopamine receptor) | AC50 (Bile salt export pump) | AC50 [6] | AC50 [7] | AC50 [8] | SMILES | AC50 [2]
> 10 µM | > 30 µM | > 30 µM | > 10 µM | > 30 µM | > 30 µM | > 30 µM | > 30 µM | > 10 µM | > 300 µM | > 10 µM | > 30 µM | > 30 µM | C=CC1=C(C(=O)O)N2C(=O)[C@@H](NC(=O)/C(=N\O)c3csc(N)n3)[C@H]2SC1 | > 30 µM
> 30 µM | > 30 µM | > 30 µM | > 30 µM | > 30 µM | > 30 µM | > 30 µM | > 30 µM | > 30 µM | > 300 µM | > 30 µM | > 30 µM | > 30 µM | CN(C)CCOC(c1ccc(Cl)cc1)c1ccccn1 (configuration not stated) [CARBINOXAMINE] | 1.3 µM
> 10 µM | > 10 µM | > 10 µM | > 10 µM | > 10 µM | > 30 µM | > 10 µM | > 10 µM | > 10 µM | > 300 µM | > 10 µM | > 30 µM | > 30 µM | CCC1(c2ccccc2)C(=O)NCNC1=O [PRIMIDONE] | > 30 µM
> 10 µM | > 30 µM | > 30 µM | > 10 µM | > 30 µM | > 30 µM | > 30 µM | > 30 µM | > 10 µM | 130 µM | > 10 µM | > 30 µM | > 30 µM | O=C(O)COC(=O)Cc1ccccc1Nc1c(Cl)cccc1Cl [ACECLOFENAC] | > 30 µM
> 30 µM | > 30 µM | > 30 µM | > 30 µM | > 30 µM | > 30 µM | > 30 µM | > 30 µM | > 30 µM | 21 µM | > 30 µM | > 30 µM | > 30 µM | CC(=O)SCC(Cc1ccccc1)C(=O)NCC(=O)OCc1ccccc1 (configuration not stated) [RACECADOTRIL] | > 30 µM
25 µM | > 30 µM | > 30 µM | > 30 µM | > 30 µM | > 30 µM | > 30 µM | > 30 µM | > 30 µM | > 300 µM | 11 µM | > 30 µM | > 30 µM | CN(C)CCc1c[nH]c2ccc(CS(=O)(=O)N3CCCC3)cc12 [ALMOTRIPTAN] | 15 µM
> 30 µM | > 30 µM | > 30 µM | > 30 µM | > 30 µM | 8.7 µM | > 30 µM | > 30 µM | > 30 µM | > 10 µM | > 30 µM | > 30 µM | > 30 µM | CC(C)(CO)c1cc2cc(NC(=O)C3(c4ccc5c(c4)OC(F)(F)O5)CC3)c(F)cc2n1C[C@@H](O)CO [TEZACAFTOR] | > 30 µM
> 10 µM | > 10 µM | > 10 µM | > 10 µM | > 10 µM | > 30 µM | > 10 µM | > 10 µM | > 10 µM | > 300 µM | > 10 µM | > 10 µM | > 30 µM | CNC1(C)C2CCC(C2)C1(C)C (configuration not stated) [MECAMYLAMINE] | > 30 µM
> 30 µM | > 30 µM | 27 µM | > 30 µM | > 30 µM | 7.11 µM | 6.47 µM | > 30 µM | > 30 µM | > 300 µM | > 30 µM | > 30 µM | 29 µM | CCN(CC)CCn1c(=O)c(Cc2ccc(OC)cc2)nc2ccccc21 [CAROVERINE] | 0.16 µM

SMILES | AC50 [1] | AC50 (Adenosine receptor A2a) | AC50 (Adenosine receptor A3) | AC50 [3] | AC50 (Melanocortin receptor 3) | AC50 [4] | AC50 [5] | AC50 (Adenosine receptor A1) | AC50 (D(1A) dopamine receptor) | AC50 (Bile salt export pump) | AC50 [6] | AC50 [7] | AC50 [8] | AC50 [2]
CCOC(=O)[C@H](CCc1ccccc1)N[C@@H](C)C(=O)N1Cc2ccccc2C[C@H]1C(=O)O | > 10 µM | > 30 µM | > 30 µM | > 10 µM | > 30 µM | > 10 µM | > 30 µM | > 30 µM | > 10 µM | 100 µM | > 10 µM | > 30 µM | > 10 µM | > 30 µM
NCCCNCCSP(=O)(O)O [AMIFOSTINE] | > 30 µM | > 30 µM | > 30 µM | > 30 µM | > 30 µM | > 30 µM | > 30 µM | > 30 µM | > 30 µM | > 300 µM | > 30 µM | > 30 µM | > 30 µM | > 30 µM
CC(=O)Oc1ccccc1C(=O)O [ASPIRIN] | > 10 µM | > 30 µM | > 30 µM | > 10 µM | > 30 µM | > 30 µM | > 30 µM | > 30 µM | > 10 µM | > 300 µM | > 10 µM | > 30 µM | > 30 µM | > 30 µM
Cc1c(C)c2c(c(C)c1O)CCC(C)(COc1ccc(CC3SC(=O)NC3=O)cc1)O2 (configuration not stated) [TROGLITAZONE] | > 30 µM | > 30 µM | 8.48 µM | > 30 µM | > 30 µM | 2.88 µM | > 30 µM | > 30 µM | > 30 µM | 5.01 µM | > 30 µM | 15.5 µM | > 30 µM | > 30 µM
